Literature values in paper PMC8982769 (Open Forum Infectious Diseases, 2022).

How the values were obtained:
[1] = within 6 to 12 hours after IV administration
[2] = humans
[3] = up to 24 grams of parenteral HPβCD daily for 15 days
VRE = details: within 48 to 72 hours
[4] = test system: enterococci carrying vanA, vanB, and vanC genes; details: in vitro

What does the source list for 2-hydroxypropyl-β-cyclodextrin [HPβCD]?
dose recovered in the urine [1]: 100%; Elimination half-life [2]: 1.7 to 1.9 h; side effects [3]: no side effects were observed

What does the source list for Oritavancin diphosphate?
log kill (VRE): > 3 log; MIC90 [4]: ≤ 0.5 µg/mL
